{
  "source": "patent US20250057853A1",
  "about": "(priority 2023, published 2025)",
  "conditions": "Cohort 5: 4.0 g/kg via 15-minutes IV infusion",
  "data": [
    {"smiles": "Br.CN1[C@@H]2C[C@@H](OC(=O)[C@H](CO)c3ccccc3)C[C@H]1[C@@H]1O[C@@H]12.O.O.O", "note": "[scopolamine HBr, scopolamine hydrobromide trihydrate]", "values": [
      {"measurement": "Number of TEAEs", "result": 25, "unit": "AEs"}
    ]}
  ]
}
